≈ marks a conversion by molar mass, not a printed value.
Key:
[1] = Solubility of the compound in pH 1.2 JP1 fluid; type: physicochemical
[2] = Half life in rat at 1 mg/kg, iv; type: ADME, organism-based; settings: in vivo
[3] = Clearance in rat at 1 mg/kg, iv; type: ADME, organism-based; settings: in vivo
[4] = biological target: T1, P2X purinoceptor 1 (Homo sapiens, UniProt P51575); experiment: Antagonist activity at P2X1 receptor (unknown origin)
T1 sequence (P51575 whole entry): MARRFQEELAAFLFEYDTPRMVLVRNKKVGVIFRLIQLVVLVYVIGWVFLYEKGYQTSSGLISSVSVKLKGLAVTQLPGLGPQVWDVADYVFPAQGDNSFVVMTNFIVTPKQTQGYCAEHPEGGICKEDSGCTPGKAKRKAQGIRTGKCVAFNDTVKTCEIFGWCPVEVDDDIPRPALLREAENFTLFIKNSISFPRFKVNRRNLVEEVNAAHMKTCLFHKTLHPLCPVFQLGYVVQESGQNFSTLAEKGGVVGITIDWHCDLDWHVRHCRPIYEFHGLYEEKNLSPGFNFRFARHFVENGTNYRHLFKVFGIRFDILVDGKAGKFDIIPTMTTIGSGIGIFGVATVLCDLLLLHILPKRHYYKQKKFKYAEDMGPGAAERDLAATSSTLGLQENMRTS

[5] = biological target: Cytochrome P450 3A4 (Homo sapiens, UniProt P08684); experiment: Inhibition of CYP3A4 (unknown origin); type: ADME
Sequence of Cytochrome P450 3A4 (P08684 whole entry): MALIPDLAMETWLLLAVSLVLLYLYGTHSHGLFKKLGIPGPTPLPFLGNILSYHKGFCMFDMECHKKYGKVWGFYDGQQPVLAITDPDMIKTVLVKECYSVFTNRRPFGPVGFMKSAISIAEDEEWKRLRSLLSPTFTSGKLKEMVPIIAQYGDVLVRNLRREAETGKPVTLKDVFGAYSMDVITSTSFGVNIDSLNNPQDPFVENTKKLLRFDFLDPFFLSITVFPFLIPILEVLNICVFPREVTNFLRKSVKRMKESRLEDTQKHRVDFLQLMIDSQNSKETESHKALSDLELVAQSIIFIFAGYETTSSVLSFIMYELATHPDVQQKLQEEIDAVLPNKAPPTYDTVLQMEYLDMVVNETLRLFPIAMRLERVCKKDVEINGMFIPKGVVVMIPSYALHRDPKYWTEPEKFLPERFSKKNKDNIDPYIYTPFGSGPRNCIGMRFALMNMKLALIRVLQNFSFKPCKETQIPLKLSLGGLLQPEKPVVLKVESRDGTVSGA

[6] = biological target: Cytochrome P450 2C19 (Homo sapiens, UniProt P33261); experiment: Inhibition of CYP2C19 (unknown origin); type: ADME
Sequence of Cytochrome P450 2C19 (P33261 whole entry): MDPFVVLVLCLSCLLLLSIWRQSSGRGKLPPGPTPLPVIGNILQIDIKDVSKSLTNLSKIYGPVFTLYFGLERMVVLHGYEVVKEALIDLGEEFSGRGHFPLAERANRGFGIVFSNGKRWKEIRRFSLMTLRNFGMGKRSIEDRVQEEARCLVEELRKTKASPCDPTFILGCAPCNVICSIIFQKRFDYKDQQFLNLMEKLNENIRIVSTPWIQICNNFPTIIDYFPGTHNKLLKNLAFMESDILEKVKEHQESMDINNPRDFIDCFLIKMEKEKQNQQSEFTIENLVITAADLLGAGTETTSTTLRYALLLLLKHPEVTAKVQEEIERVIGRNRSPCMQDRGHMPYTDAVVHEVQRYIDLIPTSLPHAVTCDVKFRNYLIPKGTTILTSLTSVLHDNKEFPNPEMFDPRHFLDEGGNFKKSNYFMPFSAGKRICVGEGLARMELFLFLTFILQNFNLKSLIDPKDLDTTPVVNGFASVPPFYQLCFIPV

[7] = biological target: Cytochrome P450 2D6 (Homo sapiens, UniProt P10635); experiment: Inhibition of CYP2D6 (unknown origin); type: functional
Sequence of Cytochrome P450 2D6 (P10635 whole entry): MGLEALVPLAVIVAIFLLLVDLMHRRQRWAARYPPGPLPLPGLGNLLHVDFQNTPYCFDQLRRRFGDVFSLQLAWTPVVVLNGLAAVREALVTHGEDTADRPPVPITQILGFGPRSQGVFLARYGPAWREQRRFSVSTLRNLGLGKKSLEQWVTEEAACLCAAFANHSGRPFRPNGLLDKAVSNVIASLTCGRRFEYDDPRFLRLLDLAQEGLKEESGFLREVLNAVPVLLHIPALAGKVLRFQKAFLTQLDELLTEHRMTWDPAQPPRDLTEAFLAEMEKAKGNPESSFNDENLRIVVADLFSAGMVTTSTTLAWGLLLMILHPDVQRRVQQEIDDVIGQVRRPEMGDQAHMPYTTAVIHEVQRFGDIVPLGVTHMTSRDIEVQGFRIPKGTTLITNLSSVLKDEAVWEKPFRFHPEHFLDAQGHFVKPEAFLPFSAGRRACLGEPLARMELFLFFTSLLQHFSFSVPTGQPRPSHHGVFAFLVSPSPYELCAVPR

[8] = Protein binding in rat plasma assessed as unbound fraction at 3 mg/kg, iv; type: ADME, organism-based
[9] = tested on: Rattus norvegicus; experiment: Analgesic activity in po dosed rat model of partial sciatic nerve ligation-induced neuropathic pain; type: functional

C[C@@H](Cn1c(=O)[nH]/c(=N\c2ccc(Oc3ccccn3)cc2)n(Cc2ccc(Cl)cc2)c1=O)C(=O)O
solubility [1]: 31.5 µg/mL (≈ 62 µM)
half-life [2]: 10.1 h
clearance [3]: 2.7 mL/min/kg
IC50 [4]: > 30 µM
IC50 [5]: > 20 µM
IC50 [6]: > 20 µM
IC50 [7]: > 20 µM
fraction unbound [8]: 0.01
ED50 [9]: 0.4 mg/kg

— ChEMBL document CHEMBL5030545, “Discovery of clinical candidate Sivopixant (S-600918): Lead optimization of dioxotriazine derivatives as selective P2X3 receptor antagonists” (Bioorg Med Chem Lett, 2021)
